Literature values, collected in US7988985B2, “Pest repellent compositions and methods” (priority 2008, dated 2011).

Experiments:
[1] = tested on: mosquitoes (e.g., Anopheles, Culex pipiens, and Aeges aegypti); details: High-strength formulations containing up to 100% DEET, 95%+ effective
[2] = tested on: blackflies (Simulium spp.); details: High-strength formulations containing up to 100% DEET
biting-insect = details: Low-strength formulations containing 12.5% DEET

CCN(CC)C(=O)c1cccc(C)c1 [DEET, N,N,-diethyl-m-toluamide]
duration of effectiveness [1]: 10 to 12 h
effective (repellent effectiveness) [2]: ≥ 95%
duration of effectiveness ([2]; 95%+ effective): over 4 hours
effective (repellent effectiveness) (biting-insect): 60-75%
